Reference: patent US5393788A, “Phenylalkyl oxamides” (SmithKline Beecham Corporation, priority 1993, dated 1995)

Legend:
TNF / endotoxin shock = assay: Two in vivo models of endotoxin shock (one or both, not specified); set-up: species or system mouse; conditions: for protection from the lethal effects of endotoxin shock: in vivo endotoxin shock models
From the text: (§1) Two models of endotoxin shock have been utilized to determine in vivo TNF activity for the compounds of Formula (1). The protocol used in these models is described in Badger et al., EPO published Application 0 411 754 A2, Feb. 6, 1991, and in Hanna, WO 90/15534, Dec. 27, 1990.

[1] = system: TNF production / endotoxic shock; assay: P acnes/LPS treated mice model of endotoxic shock; type: in vivo
From the text: as §1

serum TNF = assay: LPS/GAL mouse model of endotoxic shock; type: in vivo
From the text: as §1

Compound: COc1ccc(CCNC(=O)C(N)=O)cc1OC [Example 8, N-[2-(3,4-Dimethoxyphenyl)ethyl]oxamide]
- protection from the lethal effects of endotoxin shock (TNF / endotoxin shock): protected the animals from endotoxic induced shock
- in vivo TNF levels (TNF / endotoxin shock; one or both of the in vivo assays): inhibited in vivo TNF levels

Compound: COc1ccc(CCNC(=O)C(N)=O)cc1OC1CCCC1 [Example 15, N-[2-(3-Cyclopentyloxy-4-methoxyphenyl)ethyl]oxamide]
- protection from the lethal effects of endotoxin shock (TNF / endotoxin shock): protection from the lethal effects of endotoxin shock
- survival rate ([1]; P acnes/LPS model, control group 100% lethality): 80%
- TNF production ([1]; P acnes/LPS treated mice): inhibition of TNF production
- serum TNF levels (serum TNF): reduction in serum TNF levels
